Earlier results in patent US20040224916A1 (priority 2003, published 2004).
Where two headings read alike, the source gives them in different places.

Assays:
[1] = test system: HIV-1; settings: in vitro, with agents acting at steps other than reverse transcription, including recombinant soluble CD4, castanospermine, recombinant interferon-α
[2] = test system: HIV
[3] = dogs and rhesus monkeys

Row | Compound | antiviral activity in combination [1] | effectiveness of S-configuration (at phosphorus) diastereomer relative to R-configuration diastereomer [2] | effectiveness relative to tenofovir against HIV in culture ([2]; as stated in b46) | effectiveness relative to tenofovir against HIV in culture ([2]; as stated in b47) | stability in plasma [3]
1 | Cc1cn([C@H]2C[C@H](N=[N+]=[N-])[C@@H](CO)O2)c(=O)[nH]c1=O [AZT, 3′-azido, 3′-deoxythymidine] | synergistic antiviral activity |  |  |  | 
2 | CC(C)OC(=O)[C@H](C)N[P@](=O)(CO[C@H](C)Cn1cnc2c(N)ncnc21)Oc1ccccc1 [GS-7340, 9-[(R)-2-[[(S)-[[(S)-1-(isopropoxycarbonyl)ethyl]amino]phenoxyphosphinyl]methoxy]propyl]adenine] |  | 10 fold | 1000 times | 100 fold | stable in plasma
